For the assay, the system named is HCT116 MTAP-deleted cell lines. The assay can be described thus: Cell viability assay (CellTiter-Glo, 7 days), HCT116 MTAP-deleted. To be noted: Homo sapiens, HCT-116; cell viability assay, HCT116 MTAP-deleted; class symbols; read-out: CC50. The assay is classed as cell-based. In short, it runs like this:
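CC50 values come from 7-day CellTiter-Glo viability measurements on cells exposed to a dose range of PRMT5 inhibitors dispensed from DMSO stocks.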

Consider `Nc1nc2ccc(C(=O)N3CCC[C@@H]4Oc5cc(C(F)(F)F)ccc5[C@@H]43)cc2n2cnc(F)c12` [Ff-588, (4-amino-3-fluoroimidazo[1,5-a]quinoxalin-8-yl)((4aS,9bS)-7-(trifluoromethyl)-3,4,4a,9b-tetrahydrobenzofuro[3,2-b]pyridin-1(2H)-yl)methanone], for which the CC50 was less than 100 nM.

For `Cc1ncc2c(N)nc3cc(F)c(C(=O)N(Cc4ccc(C(F)(F)F)cn4)C4(C)CC4)cc3n12` [Ff-589, 4-amino-7-fluoro-1-methyl-N-(1-methylcyclopropyl)-N-((5-(trifluoromethyl)pyridin-2-yl)methyl)imidazo[1,5-a]quinoxaline-8-carboxamide], the CC50 was less than 100 nM.

Take `Cc1ncn2c1c(N)nc1cc(F)c(C(=O)N(Cc3ccc(C(F)(F)F)cn3)C3(C)CC3)cc12` [Ff-590, 4-amino-7-fluoro-3-methyl-N-(1-methylcyclopropyl)-N-((5-(trifluoromethyl)pyridin-2-yl)methyl)imidazo[1,5-a]quinoxaline-8-carboxamide]: the CC50 is less than 100 nM.

On to `CC(C)N(Cc1ccc(-c2ccc(OC(F)F)cc2)cc1F)C(=O)c1cc2c(cc1F)nc(N)c1cncn12` [Ff-591, 4-amino-N-((4′-(difluoromethoxy)-3-fluoro-[1,1′-biphenyl]-4-yl)methyl)-7-fluoro-N-isopropylimidazo[1,5-a]quinoxaline-8-carboxamide], for which the CC50 was less than 100 nM.

`CC(C)N(Cc1ccc(-c2cccc(OC(F)F)c2)cc1F)C(=O)c1cc2c(cc1F)nc(N)c1cncn12` [Ff-592, 4-amino-N-((3′-(difluoromethoxy)-3-fluoro-[1,1′-biphenyl]-4-yl)methyl)-7-fluoro-N-isopropylimidazo[1,5-a]quinoxaline-8-carboxamide]: the CC50 is less than 100 nM.

In the case of `CC(C)N(Cc1ccc(-c2cnn(-c3ccccc3)c2)cc1F)C(=O)c1cc2c(cc1F)nc(N)c1cncn12` [Ff-593, 4-amino-7-fluoro-N-(2-fluoro-4-(1-phenyl-1H-pyrazol-4-yl)benzyl)-N-isopropylimidazo[1,5-a]quinoxaline-8-carboxamide], the CC50 is less than 100 nM.

Take `CC(C)N(Cc1ccc(-c2ccc[nH]c2=O)cc1F)C(=O)c1cc2c(cc1F)nc(N)c1cncn12` [Ff-594, 4-amino-7-fluoro-N-(2-fluoro-4-(2-oxo-1,2-dihydropyridin-3-yl)benzyl)-N-isopropylimidazo[1,5-a]quinoxaline-8-carboxamide]: the half-maximal cytotoxic concentration (CC50) is 100 to 1000 nM.

Take `Nc1nc2cc(F)c(C(=O)N3CC[C@H]4C[C@@H]3c3ccc(Cl)nc34)cc2n2cncc12` [Ff-595, (4-amino-7-fluoroimidazo[1,5-a]quinoxalin-8-yl)((5R,9S)-2-chloro-5,7,8,9-tetrahydro-6H-5,9-methanopyrido[3,2-c]azepin-6-yl)methanone]: the CC50 lay within 100 to 1000 nM.

`CN(Cc1ccc(Br)c(C(F)F)c1)C(=O)c1cc2c(cc1F)nc(N)c1cncn12` [Ff-596, 4-amino-N-(4-bromo-3-(difluoromethyl)benzyl)-7-fluoro-N-methylimidazo[1,5-a]quinoxaline-8-carboxamide]: the CC50 was in the range of 100 to 1000 nM.

Take `Nc1nc2cc(Cl)c(C(=O)N3CC[C@H]4C[C@@H]3c3ccc(OC(F)F)cc34)cc2n2cncc12` [Ff-598, (4-amino-7-chloroimidazo[1,5-a]quinoxalin-8-yl)((1R,5S)-7-(difluoromethoxy)-1,3,4,5-tetrahydro-2H-1,5-methanobenzo[c]azepin-2-yl)methanone]: the CC50 is less than 100 nM.

For the compound `Nc1nc2cc(Cl)c(C(=O)N3CC[C@H]4C[C@@H]3c3ccc(Cl)cc34)cc2n2cncc12` [Ff-599, (4-amino-7-chloroimidazo[1,5-a]quinoxalin-8-yl)((1R,5S)-7-chloro-1,3,4,5-tetrahydro-2H-1,5-methanobenzo[c]azepin-2-yl)methanone], the CC50 is less than 100 nM.

Consider `CN(C(=O)c1cc2c(cc1F)nc(N)c1cncn12)C1COc2cc3ccccc3cc21` (stereo not shown) [Ff-600, 4-amino-N-(2,3-dihydronaphtho[2,3-b]furan-3-yl)-7-fluoro-N-methylimidazo[1,5-a]quinoxaline-8-carboxamide], for which the CC50 is less than 100 nM.

As to `Nc1nc2cnc(C(=O)N3CC[C@H]4C[C@@H]3c3ccc(Cl)nc34)cc2n2cncc12` [Ff-602, (4-aminoimidazo[1,5-a]pyrido[3,4-e]pyrazin-8-yl)((5R,9S)-2-chloro-5,7,8,9-tetrahydro-6H-5,9-methanopyrido[3,2-c]azepin-6-yl)methanone], the CC50 lay in the range of 100 to 1000 nM.

On to `Nc1nc2cc(F)c(C(=O)N3CC[C@H]4C[C@@H]3c3ccc(Cl)cc34)cc2n2cncc12` [Ff-603, (4-amino-7-fluoroimidazo[1,5-a]quinoxalin-8-yl)((1R,5S)-7-chloro-1,3,4,5-tetrahydro-2H-1,5-methanobenzo[c]azepin-2-yl)methanone], for which the CC50 was in the range of 100 to 1000 nM.

Consider `CCN(C(=O)c1cc2c(cn1)nc(N)c1cncn12)[C@@H]1COc2cc(C(F)(F)F)ccc21` [Ff-604, (S)-4-amino-N-ethyl-N-(6-(trifluoromethyl)-2,3-dihydrobenzofuran-3-yl)imidazo[1,5-a]pyrido[3,4-e]pyrazine-8-carboxamide], for which the CC50 was less than 100 nM.

For the compound `CN(C(=O)c1cc2c(cc1F)nc(N)c1cncn12)C1COc2cc(Cl)c(Br)cc21` (stereo not shown) [Ff-608, 4-amino-N-(5-bromo-6-chloro-2,3-dihydrobenzofuran-3-yl)-7-fluoro-N-methylimidazo[1,5-a]quinoxaline-8-carboxamide], the CC50 is less than 100 nM.

For `CN(C(=O)c1cc2c(cc1F)nc(N)c1cncn12)C1COc2cc(Br)c(Cl)cc21` (stereo not shown) [Ff-609, 4-amino-N-(6-bromo-5-chloro-2,3-dihydrobenzofuran-3-yl)-7-fluoro-N-methylimidazo[1,5-a]quinoxaline-8-carboxamide], the CC50 is less than 100 nM.

Regarding `CCN(C(=O)c1cc2c(cn1)nc(N)c1c(C)ncn12)[C@@H]1COc2cc(C(F)(F)F)ccc21` [Ff-610, (S)-4-amino-N-ethyl-3-methyl-N-(6-(trifluoromethyl)-2,3-dihydrobenzofuran-3-yl)imidazo[1,5-a]pyrido[3,4-e]pyrazine-8-carboxamide], the CC50 was less than 100 nM.

As to `CCN(C(=O)c1cc2c(cn1)nc(N)c1cnc(C)n12)[C@@H]1COc2cc(C(F)(F)F)ccc21` [Ff-613, (S)-4-amino-N-ethyl-1-methyl-N-(6-(trifluoromethyl)-2,3-dihydrobenzofuran-3-yl)imidazo[1,5-a]pyrido[3,4-e]pyrazine-8-carboxamide], the CC50 was less than 100 nM.

As for `CN(C(=O)c1cc2c(cc1C1CC1)nc(N)c1cncn12)[C@@H]1COc2cc(C(F)(F)F)ccc21` [Ff-614, (S)-4-amino-7-cyclopropyl-N-methyl-N-(6-(trifluoromethyl)-2,3-dihydrobenzofuran-3-yl)imidazo[1,5-a]quinoxaline-8-carboxamide], the CC50 was less than 100 nM.

As for `Nc1nc2cc(F)c(C(=O)N3CCC[C@@H]4Oc5cc(C(F)(F)F)ccc5[C@@H]43)cc2n2cnc(F)c12` [Ff-621, (4-amino-3,7-difluoroimidazo[1,5-a]quinoxalin-8-yl)((4aS,9bS)-7-(trifluoromethyl)-3,4,4a,9b-tetrahydrobenzofuro[3,2-b]pyridin-1(2H)-yl)methanone], the CC50 lay within 100 to 1000 nM.

Turning to `Nc1nc2cc(F)c(C(=O)N3CCC[C@@H]4Oc5cc(C(F)(F)F)ccc5[C@@H]43)cc2n2c(F)ncc12` [Ff-622, (4-amino-1,7-difluoroimidazo[1,5-a]quinoxalin-8-yl)((4aS,9bS)-7-(trifluoromethyl)-3,4,4a,9b-tetrahydrobenzofuro[3,2-b]pyridin-1(2H)-yl)methanone], the CC50 was less than 100 nM.

For `Cc1ncc2c(N)nc3cc(F)c(C(=O)N4CC[C@H]5C[C@@H]4c4ccc(C(F)(F)F)nc4O5)cc3n12` [Ff-627, (4-amino-7-fluoro-1-methylimidazo[1,5-a]quinoxalin-8-yl)((2S,6R)-9-(trifluoromethyl)-3,4-dihydro-2H-2,6-methanopyrido[2,3-b][1,5]oxazocin-5(6H)-yl)methanone], the CC50 was less than 100 nM.

For the compound `Cc1ncc2c(N)nc3cc(F)c(C(=O)N4C[C@@H](C)O[C@@H]5Cc6cc(C(F)(F)F)ccc6[C@@H]54)cc3n12` [Ff-629, (4-amino-7-fluoro-1-methylimidazo[1,5-a]quinoxalin-8-yl)((2R,4aS,9aR)-2-methyl-7-(trifluoromethyl)-2,3,9,9a-tetrahydroindeno[2,1-b][1,4]oxazin-4(4aH)-yl)methanone], the CC50 was less than 100 nM.

On to `C[C@@H]1CN(C(=O)c2ccc3nc(N)c4cncn4c3c2)[C@H]2c3ccc(C(F)(F)F)cc3C[C@H]2O1` [Ff-630, (4-aminoimidazo[1,5-a]quinoxalin-8-yl)((2R,4aS,9aR)-2-methyl-7-(trifluoromethyl)-2,3,9,9a-tetrahydroindeno[2,1-b][1,4]oxazin-4(4aH)-yl)methanone], for which the 50% cytotoxic concentration (CC50) is less than 100 nM.

As for `Cc1ncc2c(N)nc3ccc(C(=O)N4C[C@@H](C)O[C@@H]5Cc6cc(C(F)(F)F)ccc6[C@@H]54)cc3n12` [Ff-631, (4-amino-1-methylimidazo[1,5-a]quinoxalin-8-yl)((2R,4aS,9aR)-2-methyl-7-(trifluoromethyl)-2,3,9,9a-tetrahydroindeno[2,1-b][1,4]oxazin-4(4aH)-yl)methanone], the CC50 was in the range of 100 to 1000 nM.

Take `Cc1ncn2c1c(N)nc1cnc(C(=O)N3CC[C@H]4C[C@@H]3c3cc(F)c(C(F)(F)F)cc3O4)cc12` [Ff-635, (4-amino-3-methylimidazo[1,5-a]pyrido[3,4-e]pyrazin-8-yl)((2S,6R)-8-fluoro-9-(trifluoromethyl)-3,4-dihydro-2H-2,6-methanobenzo[b][1,5]oxazocin-5(6H)-yl)methanone]: the CC50 was less than 100 nM.

On to `Nc1nc2cc(F)c(C(=O)N3CC[C@H]4C[C@@H]3c3cc(F)c(C(F)(F)F)cc3O4)cc2n2cncc12` [Ff-636, (4-amino-7-fluoroimidazo[1,5-a]quinoxalin-8-yl)((2S,6R)-8-fluoro-9-(trifluoromethyl)-3,4-dihydro-2H-2,6-methanobenzo[b][1,5]oxazocin-5(6H)-yl)methanone], for which the CC50 is less than 100 nM.

As a reminder, the CC50 is the concentration at which the toxic effect on the cells reaches its halfway point.

Source of the values: patent US12448388B2, “PRMT5 inhibitors and uses thereof” (Gilead Sciences, Inc., priority 2023, dated 2025).
